Here are results for seven molecules from US20150320782A1, “Methods, compositions and kits for treating, modulating, or preventing ocular angiogenesis or fibrosis in a subject using a galectin protein inhibitor” (TUFTS UNIVERSITY, priority 2012, published 2015).

Values joined by “and” are separate entries in the source; they are usually repeats but may differ in a detail not shown here. Identical values can stand only once. “Also recorded” adds a separate entry of the source.

Data set [1] concerns TM cells on galectin-8 coated wells. The settings on record: cited from earlier work.
In the next data set the test system is mouse retinas. Description: Alkali (sodium hydroxide) model, retinal gliosis (GFAP western blot). The conditions noted are these: 10 μl of 50 mM TD139 subconjunctival daily for 14 days; vs PBS. Background: Immunoblotting shows a protein as a band on a membrane.
In data set [2] the test system is mouse corneas. The data set is described as follows: Silver nitrate cautery-induced corneal neovascularization, TD139. The class given is in vivo. The settings on record: TD139 325 ng sub-conjunctival every other day, 50 μM eye drops daily; day five after cautery; control about 40%. The source says: FIG. 11A is a drawing of an experimental regimen for drug administration in murine subjects strain C57B/6L. […] Silver nitrate was applied on day zero to cauterize the eyes of the subjects. Mice were sacrificed on day five, and flat mounts of corneas were stained with anti-CD31 to visualize blood vessels. Data shown in FIG. 11 B-C were from subjects treated as described in FIG. 11A.
Neovascularization in the eye was induced in mouse corneas by cauterization using silver nitrate. […] Control subjects were sub-conjunctivally injected with vehicle only (PBS containing 0.5% DMSO only).
After five days of either sub-conjunctival injection treatment or eye drop treatment, subjects were sacrificed, and flat mounts of corneas were excised, photographed, and stained with anti-CD31 to visualize blood vessels (FIG. 11B, magnification is ×100). The density of blood vessels covering the whole cornea was quantified by ImageJ and was analyzed with Student's t test (FIG. 11C).

In data set [3] the test system is HUVEC. The data set is described as follows: VEGF-A-induced endothelial cell migration (chemotaxis chamber). The format is cell-based, human. The conditions noted are these: three hours. Here is the method: FIG. 13B is a bar graph showing migration distance (migration index, ordinate) of HUVEC cells treated with (abscissa) […] as in FIG. 13A. HUVECs were serum starved overnight, detached with proteolytic and collagenolytic enzyme product Accutase™ (Millipore Inc.), resuspended in 1% FBS/M199 and then added to the upper chamber of a migration testing system. […] After three hours of incubation, HUVECs that migrated to lower side of the membrane were counted.
HUVEC were incubated without serum overnight, detached with Accutase, re-suspended in 1% FBS/M199 and added in an upper chamber separated from a bottom chamber by a membrane. […] Control HUVEC were treated with neither VEGF-A nor TD139.
Data were plotted as mean±SEM and analyzed with one-way ANOVA. *P<0.05 vs control; ***P<0.001 vs control; ^###P<0.001 vs VEGF-A.

In data set [4] the test system is mouse corneas. The data set is described as follows: Alkali (sodium hydroxide) model of corneal fibrosis. The settings on record: vs PBS.
Description: C57BJ/6 mice were anesthetized by intraperiteoneal injection of a mixture of ketamine and xylazine. Corneas of the subjects were topically anesthetized by applying an eye drop of proparacain. 1.5 μl drop of 0.15M sodium hydroxide was applied for one minute to the central cornea of each subject. Each eye was immediately washed extensively in PBS, and corneal epithelium and limbal epithelium were gently removed with an ALGEBRUSH™ optical device (Storz Ophthalmic Instruments, St. Louis, Mo.). Each cornea was covered with an antibiotic ointment. […] Control subjects were injected subconjunctivally with control vehicle PBS. Corneas were visualized and analyzed for opacity, and protein markers for fibrosis were quantified as described below.
Mice were sacrificed at day 14 post surgery using a mixture of ketamine and xylazine. Mouse corneas were dissected and lysed in ice-cold lysis buffer containing 5 mM NaF, 1 mM PMSF, 1 mM DTT, 20 mM HEPES, 1 mM EDTA, 400 mM NaCl, 1 mM EGTA, 0.1% NP-40, and a protease inhibitor cocktail product (Roche). Aliquots of corneal protein (20 μg) were loaded to each lane of a gel and transferred onto a nitrocellulose membrane. Blots were probed overnight at 4° C. with either a rabbit antibody specific for α-smooth muscle actin (10,000 dilution; Abcam Inc., Cambridge, England), or with a control antibody specific for β-actin. The blots were extensively washed and were incubated with goat anti rabbit IRDye 800CW antibody (1:10,000 dilution; LI-Cor Biosciences; Lincoln Nebr.). Membranes were scanned and quantified using an Odessey imaging system (Li-Cor Biosciences).
C57BJ/6 mice were anesthetized by intraperiteoneal injection of ketamine and xylazine mixture. […]
Subjects were sacrificed on day fourteen after alkalisurgery using a mixture of ketamine and xylazine. […] The membranes were washed and incubated with goat anti rabbit IRDye 800CW antibody (1:10,000; Li-Cor Inc.), the membranes were scanned and quantified with Odessey imaging system (Li-Cor Inc.).
SMA (smooth muscle actin) is a marker of corneal fibrosis. […] Opacity of the eye was scored on day 7 and day 14. […]
In another data set the target is recombinant galectin-1 (Homo sapiens, UniProt P09382). Description: Microtiter plate binding assay with galectin receptor-HRP conjugate, galectin-1. The conditions noted are these: plate coated with recombinant galectin-1.
A further data set relates to HUVEC spheroids. The data set is described as follows: VEGF-A-induced HUVEC spheroid sprouting in type I collagen gels. The class given is cell-based, human. The conditions noted are these: VEGF-A 100 ng/ml; TD139 0.1, 1, 5 and 10 μM; 24 hours. The protocol:
HUVEC spheroids were prepared and seeded into type I collagen gels. […] Control collagen samples were treated with 100 μl of EBM-2 and 25 ng/mL VEGF in EBM-2. […] After a 24 hour incubation, spheroids were stained with calcein AM dye and photographed by a fluorescent microscope. Cumulative sprout lengths for HUVEC in gels were quantified by ImageJ.
HUVEC spheroids were prepared as described in examples herein, and the spheroids were seeded into type I collagen gels. […] Control spheroids were treated with neither VEGF-A nor TD139. After 24 hours of treatment, spheroids were stained with calcein AM, a cell-permeant dye that indicates cell viability in eukaryotic cells (Invitrogen Inc.), and the spheroids were photographed by a fluorescent microscope. Cumulative sprout lengths were quantified by ImageJ.

The test system of data set [5] is endothelial cell (EC) spheroids (HUVEC). The class given is cell-based. Here is the method:
Methyl cellulose powder (6 g) was autoclaved with stirring using a magnetic bar in a 500 mL bottle. The powder was dissolved in 250 mL of DMEM medium at 60° C. with stirring for 30 minutes, and then 250 mL DMEM at room temperature was added and the mixture was stirred for two hours at 4° C. The resulting mixture was then aliquoted into 50 mL cylindrical tubes and centrifuged (6170 revolutions per minute) for two hours at room temperature to remove debris interfering with spheroid formation. The clear supernatant was collected from the centrifuged tubes.
Endothelial cells (EC) were cultured in containers and were detached from the container surfaces with 0.25% trypsin. The pH of the trypsinized EC cells was neutralized with DMEM. Spheroid solution was prepared in tubes by combining 3.75 mL of methylcellulose, 1.75 mL FBS, 17.5 μl pen/strep, and […] endothelial cells, and adding DMEM to bring the total volume to 17.5 mL. The spheroid solution was mixed by inverting tubes, and 150 μl aliquots were added to each well of a 96 well plate using a multichannel pippettor and wide mouth tips. Spheroids were settled and were incubated for 24 hours at 37° C. in 5% CO2.
Each 96 well plate yielded spheroids sufficient for four wells of a 24 well plate. The collagen solution was prepared using 2.3 mL (3.9 mg/mL) collagen type 1, 400 μl 10×M199 medium, 200 μl FBS, and 1.1 mL water. The collagen solution was neutralized with sodium hydroxide using a color pH indicator. The methyl cellulose solution (4.5 mL) was combined with 1.5 mL DMEM and warmed to 37° C. in a water bath. EC spheroids were collected using a wide mouth pipette and centrifuged (700 revolutions per minutes) for three minutes at room temperature.
The resulting supernatant was removed, and two mL of methyl cellulose solution were added to the pellet. Neutralized collagen solution (2 mL) was added to the mixture, and mixed using a pipette carefully to avoid bubble formation.
An aliquot (1 mL) of the mixed collagen solution was added to four wells of a 24 well plate, and the plate was incubated at 37 C 5% CO2 for 30 minutes to polymerize the collagen. […] Control collagen samples were treated with 100 μl of EBM-2 and 25 ng/mL VEGF in EBM-2.
See Meyer et al. 2003 J Biol Chem. 278(18): 16347-55. Representative images of the incubated samples were obtained and the cumulative length in arbitrary units of the endothelial cell sprouts was determined by ImageJ processing and analysis procedures. The data was analyzed by Student's t-test (Table 2).

Data set [6] deals with HUVEC. The data set is described as follows: HUVEC viability by calcein AM and WST-1. The format is cell-based, human. The settings on record: three hours treatment; TD139 5 μM, Triton X-100 0.1%. Here is the method:
The cell viabilities of the treated HUVEC and control HUVEC were determined with each of calcein AM and WST-1, two systems used to determine cell viability. Calcein AM was added to a group of treated HUVEC, which were incubated for 30 minutes (FIG. 14A). Another group of treated HUVEC were incubated for two hours with WST-1, a tetrazolium salt used for determining cell proliferation and is an indicator or cell viability (FIG. 14B). Data are plotted with mean±SEM and analyzed with one-way ANOVA. ***P<0.001 vs control. Fluorescence emission was detected by a spectrophotometer for each treated group contacted with either calcein AM or WST-1.

Another data set addresses recombinant galectin-3 (Homo sapiens, UniProt P17931). Description: Microtiter plate binding assay with galectin receptor-HRP conjugate, galectin-3. The settings on record: plate coated with recombinant galectin-3.
The test system of a further data set is VEGFR2. The data set is described as follows: VEGFR2 expression in HUVEC by western blot. The format is cell-based, human. The settings on record: 10 μM TD139, six hours. The protocol:
Cell lysates were analyzed by electrophoresis in 4-20% SDS-PAGE gels. The gels were transferred to western blot membranes, and were probed with anti-VEGFR-2 antibody (FIG. 15 top row) or β-actin antibody (FIG. 15 bottom row).
Control HUVEC were not treated with TD139. Cell lysates were analyzed using gel electrophoresis (4-20% SDS-PAGE gels), and the membrane blots were probed with either anti-VEGFR-2 antibodies or β-actin antibodies.

The target in the next data set is T1, galectin-1 / VEGFR-2 (Homo sapiens, UniProt P09382).
T1 construct: host or cells: VEGFR-2: endogenous, HUVEC lysate
The data set is described as follows: HUVEC lysate VEGFR-2 pull-down on galectin-1 agarose beads. The format is binding. The conditions noted are these: 0.1 M saccharide. The source says: FIG. 12 is a photomicrograph of a western blot showing that galectin-1 and galectin-3 interacted with VEGFR-2. […] Control samples contained only HUVEC lysates or beads. Bound material was eluted with Laemmli sample buffer, added to 4-20% SDS-PAGE gels, and electrophoresed. Gels were transferred onto membrane blots, which was then probed with anti-VEGFR-2 antibody. VEGFR-2 antibody was observed bound to the HUVEC lysate control and not to the bead only control. […] Thus, the interaction between VEGFR-2 and galectin-1 and galectin-3 was observed herein to be carbohydrate-dependent.
Control HUVEC lysates were incubated with galectin-1 agarose beads or galectin-3 agarose beads only. The beads were rinsed to remove unbound material.
HUVEC lysate material bound to the beads was eluted with the Laemmli sample buffer and was analyzed using gel electrophoresis (4-20% SDS-PAGE gels). Following blocking, membrane blots were probed using anti-VEGFR-2 antibody (FIG. 12). […] Further, the VEGFR2 HUVEC lysate binding to the beads was […] for beads treated with sucrose, a noncompeting saccharide.

In another data set the target is T2, galectin-3 / VEGFR-2 (Homo sapiens, UniProt P17931).
T2 construct: host or cells: VEGFR-2: endogenous, HUVEC lysate
The data set is described as follows: HUVEC lysate VEGFR-2 pull-down on galectin-3 agarose beads. The settings on record: 0.1 M saccharide. The class given is binding.

T1 sequence (P09382 whole entry): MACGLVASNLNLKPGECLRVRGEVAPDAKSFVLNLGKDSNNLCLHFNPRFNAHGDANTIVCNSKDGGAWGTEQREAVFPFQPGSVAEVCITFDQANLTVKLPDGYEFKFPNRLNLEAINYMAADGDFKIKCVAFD
Sequence of recombinant galectin-1 (P09382 whole entry): as above
Sequence of recombinant galectin-3 (P17931 whole entry): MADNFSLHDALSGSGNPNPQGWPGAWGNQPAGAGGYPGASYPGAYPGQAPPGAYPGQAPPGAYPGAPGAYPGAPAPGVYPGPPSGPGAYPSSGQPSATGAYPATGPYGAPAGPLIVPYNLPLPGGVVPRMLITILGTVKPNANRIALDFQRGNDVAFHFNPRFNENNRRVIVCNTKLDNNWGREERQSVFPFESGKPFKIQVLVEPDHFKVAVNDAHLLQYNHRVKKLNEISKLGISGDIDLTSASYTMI
T2 sequence (P17931 whole entry): as above
Description for mouse retinas: Corneas of murine subjects were contacted with sodium hydroxide. […] Control subjects were injected subconjunctively with PBS control vehicle only. Subjects were sacrificed by ketamine and xylazine on day 14 post surgery. […] Aliquots of retinal protein (30 μg) from lysates, or a control β-actin material were loaded to gels and transferred onto nitrocellulose membranes. Blots were probed overnight at 4° C. with rabbit anti mouse antibody specific for glial fibrillary acidic protein (GFAP; 50,000 dilution; Abcam Inc.; FIG. 18 top row), or with a control antibody specific for β-actin. […] Control blots were probed with rabbit antibody specific for β-actin (FIG. 18 bottom row). The probes were washed and were incubated with goat anti rabbit IRDye 800CW antibody (1:10,000 dilution; LI-Cor Biosciences). Membranes were scanned and quantified using an Odessey imaging system (Li-Cor Biosciences).
C57BJ/6 mice were anesthetized by intraperiteoneal injection of ketamine and xylazine mixture. Corneas were topically anesthetized by application of proparacain eye drop. […]
Subjects were sacrificed on day fourteen after alkalisurgery using a mixture of ketamine and xylazine. […] The membranes were washed and incubated with goat anti rabbit IRDye 800CW antibody (1:10,000; Li-Cor Inc.), the membranes were scanned and quantified with Odessey imaging system (Li-Cor Inc.). […]
Description for recombinant galectin-3: Microtiter plate wells were coated with recombinant galectin-1 or galectin-3 (10 μg/ml, 50 μl/well), and then washed with wash solutions containing PBS and detergent. The wells were blocked with BSA, and washed with wash solution/buffer. […] Control wells included PBS only. An amount of galectin receptor-HRP conjugate (100 μL/well, 1 mg/mL) specific for either galectin-1 or galectin-3 was added to the respective wells. The wells were incubated for one hour and then washed with buffer at room temperature. The horse-radish peroxidase enzyme reaction was performed using a TMB-peroxidase substrate kit (BioRad Inc.). The reaction was stopped after one hour by addition of 1N sulfuric acid (100 μL/well) and the optical density was read at 450 nm.

Consider `CC(=O)N[C@H]1[C@H]([C@H](O)[C@H](O)CO)O[C@@](O[C@H]2[C@@H](O)[C@@H](CO)O[C@@H](O[C@H]3[C@H](O)[C@@H](NC(C)=O)C(O)O[C@@H]3CO)[C@@H]2O)(C(=O)O)C[C@@H]1O` (stereo partly shown) [NeuAca2-3Galβ1-4GlcNAc], for which, in data set [1], the “Spreading of TM cells on galectin-8 protein coated wells” value is “inhibited”.
`CC(=O)N[C@H]1[C@H]([C@H](O)[C@H](O)CO)O[C@](OC[C@H]2O[C@@H](O[C@H]3[C@H](O)[C@@H](NC(C)=O)C(O)O[C@@H]3CO)[C@H](O)[C@@H](O)[C@H]2O)(C(=O)O)C[C@@H]1O` (stereo partly shown) [NeuAca2-6Galβ1-4GlcNAc]: the “Spreading of TM cells on galectin-8 protein coated wells” value in data set [1] is recorded as “no effect”.
For `OC[C@H]1O[C@@H](S[C@@H]2O[C@H](CO)[C@H](O)[C@H](n3cc(-c4cccc(F)c4)nn3)[C@H]2O)[C@H](O)[C@@H](n2cc(-c3cccc(F)c3)nn2)[C@H]1O` [TD139, bis-{3-deoxy-3-[4-(3-fluorophenyl)-1H-1,2,3-triazol-1-yl]-β-D-galactopyranosyl}sulfane], the “GFAP expression in retinal lysates” value with mouse retinas is listed as “reduced expression of GFAP”. In the data set on mouse corneas [2], the “Density of blood vessels covering the cornea (percent area)” value came out at 28%. For the same molecule, the “VEGF-A-induced chemotaxis and migration” value in the data set with HUVEC [3] (TD139 1 to 5000 nM, dose-dependent) is reported as “significantly abrogated”. The “Concentration as low as which VEGF-A-induced chemotaxis was significantly abrogated” value in the data set on HUVEC [3] (VEGF-A 100 ng/mL) came to 1 nM. Further, in the data set with mouse corneas [4] (10 μl of 50 mM TD139 subconjunctival daily for 14 days after alkali), the “Corneal opacity (score 0-4)” value was “area of opacity less than about the site of the pupil; also recorded: reduced corneal opacity”. Besides, the “Reduction of α-SMA (smooth muscle actin) expression in corneal lysates” value in the data set on mouse corneas [4] (10 μl of 50 mM TD139 subconjunctival daily for 14 days) stood at 30%. The “Binding to galectin-1” value at recombinant galectin-1 is “specifically bound”. In addition, in the data set with HUVEC spheroids, the “VEGF-A-induced sprouting (cumulative sprout length)” value is recorded as “significantly inhibited”. Besides, in data set [5] (10 μM TD139, compared to VEGF alone), the “Decrease of VEGF-mediated EC sprouting” value is “about one-third”. In addition, the “Reduction of the extent of VEGF-mediated sprouting” value in [5] (50 μM TD139) is reported as “about two-thirds”. Besides, in the data set on HUVEC [6], the “Calcein AM fluorescence (cell viability)” value is “comparable calcein AM fluorescence” and the “WST-1 signal (cell viability)” value is “comparable cell viability”. Also, the “Binding to galectin-3” value on recombinant galectin-3 is “specifically bound”. Moreover, the “Total protein expression of VEGFR2” value in the data set on VEGFR2 is reported as “little or no effect”.
For `OC[C@H]1O[C@@H](O[C@H]2[C@H](O)[C@@H](O)C(O)O[C@@H]2CO)[C@H](O)[C@@H](O)[C@H]1O` (stereo partly shown) [lactose], the “Inhibition of VEGFR-2 binding to galectin-1 beads” value on galectin-1 / VEGFR-2 is listed as “inhibited”. Besides, the “Adhesion of TM cells to galectin-8 coated wells” value in [1] is recorded as “inhibited or prevented”.
Take `OC[C@H]1O[C@@](CO)(O[C@H]2O[C@H](CO)[C@@H](O)[C@H](O)[C@H]2O)[C@@H](O)[C@@H]1O` [sucrose]: the “Inhibition of VEGFR-2 binding to galectin-3 beads” value at galectin-3 / VEGFR-2 was “not inhibited”. In addition, the “Inhibition of VEGFR-2 binding to galectin-1 beads” value on galectin-1 / VEGFR-2 is given as “not inhibited”. The “Adhesion of TM cells to galectin-8 coated wells” value in data set [1] was “not inhibited”.
Triton™ X-100: in the data set with HUVEC [6], the “Calcein AM fluorescence (cell viability)” value is “reduced fluorescence” and the “WST-1 signal (cell viability)” value is on record as “reduced WST-1 fluorescence”.
In the case of VEGF, in [5] (VEGF 25 ng/mL only), the “Fold change in capillary sprouting of EC over control cells not contracted with VEGF and inhibitor” value was 650 fold and 921 fold and 604 fold and 800 fold; the “Formation of endothelial cell sprouts compared to medium only” value is “four-fold”.
